From patent publication US9072295B2, “Herbicidal compositions” (Syngenta Participations AG, priority 2011, dated 2015) come the findings set out here.

One test relates to Winter wheat. Kind of test: Field test: herbicidal damage to winter wheat after pre-emergence fomesafen, with or without safener A seed treatment. As to conditions: seed treatment 100 g/100 kg seed; fomesafen up to 560 g/ha. The procedure: Winter wheat seed is treated with safener A (1-[4-(N-2-methoxybenzoylsulfamoyl)phenyl]-3-methylurea) at 100 g safener/100 kg of seed. Control seed is also included which contains no safener seed treatment. The wheat seed is then planted in a field as a randomized block design including four replications.

The subject of test [1] is maize varieties (LEXXOR, PACTOL, CLAXXON, GARLAND and SUNDANCE). Kind of test: Greenhouse study: herbicidal damage to maize after pre-emergence PPGO inhibiting herbicides, with or without safener seed treatment. The test is classed as in vivo. To be noted: seed treatment 1 g/kg seed; 8 DAA. How it is done: A greenhouse study is performed to evaluate the safener response of various maize varieties to various PPGO inhibiting herbicides. […] Control seed is also included in the test which contains no safener seed treatment. Herbicide treatments are applied pre-emergence, at the indicated application rates, using a laboratory tracksprayer with a TeeJet 11002VS nozzle. The sprayer is set to deliver an output of 200 L/ha by applying an air pressure of 2 bar. The treated and control seeds are then planted in the treated sandy loam soil contained in 10 cm deep plastic trays and watered from the top of the trays as needed.

With `CNC(=O)Nc1ccc(S(=O)(=O)NC(=O)c2ccccc2OC)cc1` [Safener A, 1-[4-(N-2-methoxybenzoylsulfamoyl)phenyl]-3-methylurea], the “Safening of fomesafen in winter wheat” value in the test with Winter wheat is recorded as “highly effective safening”. Also, in test [1], the “Safening against sulfentrazone in maize” value is “particularly good safening” and the “Safening of the various PPGO inhibiting herbicides tested in maize” value is “highly effective safening”.
